Consider one compound from US20190388490A1, “PLANT EXTRACTIONS, COMPOSITIONS CONTAINING SAME, AND USES THEREOF” (priority 2010, published 2019).

SMILES strings stand for the structures.

The test can be described thus: Free radical scavenging by ESR with DPPH. The note with it: 100 μg mixed with alcohol solution of DPPH for 2 minutes. As to the method: The free radical scavenging capacity of the Bacopa monniera extract product was evaluated using spectrophotometric and electron spin resonance (ESR) techniques. ESR is considered to be the least ambiguous method for the detection of free radicals. 2,2-Diphenyl -1-picrylhydrazyl (DPPH) was used as a stable free radical. An alcohol solution of DPPH was mixed with 100 μg of a Bacopa monniera extract product for 2 minutes and then ESR measurements were conducted. Quercetine was used as a positive control for scavenging the free radicals.
A general note: DPPH is a stable violet radical that fades when it is reduced.

As to `O=c1c(O)c(-c2ccc(O)c(O)c2)oc2cc(O)cc(O)c12` [quercetine, Quercetine], the “effect on DPPH free radical ESR peak” value was “slight change in peak height”.
